The record followed here is ChEMBL document CHEMBL1201862, “PubChem BioAssay data set” (2004).

Some test systems named below: NCI/ADR-RES; SK-MEL-28; KM12; NCI-H522; UO-31; SK-MEL-2; OVCAR-8; OVCAR-3; A498; SR; TK-10; SNB-75; BT-549; CAKI-1; SF-295; EKVX; OVCAR-5; HCT-15; UACC-257; HCC 2998.
What all share (assay): NCI tumour cell line growth inhibition, 48 h

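These data come from cells grown in 96-well plates and exposed to compound for 48 hours at five concentrations. GI50 is the concentration that inhibits growth by half.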 The source made the active and inactive calls. No stated cut-off is given here; in the data, active = GI50 up to about 1.1 µM and inactive = higher.

Regarding `Cc1ccnc(NS(=O)(=O)c2ccc(N=[N+]=[N-])cc2)n1`, the GI50 with NCI/ADR-RES, in the test on SK-MEL-28, in the test with KM12, with NCI-H522, in the test with UO-31 and in the test with SK-MEL-2 was > 100 µM (inactive) in each case. Further, the GI50 was > 100 µM (inactive) in the test with OVCAR-8; > 100 µM (inactive) in the test on OVCAR-3; > 100 µM (inactive) in the test on A498; 1.34 µM (inactive) in the test with SR; > 100 µM (inactive) in the test on TK-10; > 100 µM (inactive) with SNB-75. Also, the GI50 in the test with BT-549 is > 100 µM (inactive); in the test on CAKI-1, > 100 µM (inactive); with SF-295, > 100 µM (inactive); with EKVX it was > 100 µM (inactive); in the test on OVCAR-5 it was > 100 µM (inactive); with HCT-15, over 100 µM. Further, the GI50 with UACC-257 is > 100 µM (inactive).
With `N#Cc1nc(CCCCCN2C(=O)c3ccccc3C2=O)oc1N`, the GI50 in the test with NCI/ADR-RES is > 100 µM (inactive); in the test on SK-MEL-28, > 100 µM (inactive); in the test on KM12, > 100 µM (inactive); in the test with NCI-H522 it was 4.84 µM (inactive); with UO-31, 94.4 µM (inactive); in the test with SK-MEL-2, > 100 µM (inactive). For the same compound, the GI50 is > 100 µM (inactive) in the test on OVCAR-8; > 100 µM (inactive) with OVCAR-3; > 100 µM (inactive) with SR; > 100 µM (inactive) in the test on TK-10; 16.3 µM (inactive) with HCC 2998; 25.7 µM (inactive) in the test on BT-549. Further, the GI50 with CAKI-1 is > 100 µM (inactive); in the test with SF-295, > 100 µM (inactive); in the test on EKVX, > 100 µM (inactive); in the test on OVCAR-5, > 100 µM (inactive); in the test on HCT-15, over 100 µM; with UACC-257, > 100 µM (inactive).
Consider `NC1CC(=O)c2ccccc21` (configuration not stated), for which the GI50 in the test with NCI/ADR-RES, with SK-MEL-28, in the test on KM12, with NCI-H522, in the test on UO-31 and with SK-MEL-2 was > 100 µM (inactive) in each case. Further, the GI50 in the test with OVCAR-8, in the test with OVCAR-3, in the test on A498, in the test with TK-10, in the test with HCC 2998 and with SNB-75 was > 100 µM (inactive) each time. The GI50 in the test on BT-549 was > 100 µM (inactive); in the test with CAKI-1, > 100 µM (inactive); in the test with SF-295, > 100 µM (inactive); with EKVX, > 100 µM (inactive); in the test on OVCAR-5 it was > 100 µM (inactive); in the test with HCT-15, over 100 µM. Further, the GI50 in the test on UACC-257 was > 100 µM (inactive).
With `Brc1ccc(/N=C/C=C(\Nc2ccc(Br)cc2)C23CC4CC(CC(C4)C2)C3)cc1`, the GI50 in the test on NCI/ADR-RES is 20 µM (inactive); with SK-MEL-28, 18.5 µM (inactive); in the test on KM12, 12.7 µM (inactive); with NCI-H522 it was 10.9 µM (inactive); with UO-31, 17.7 µM (inactive); with SK-MEL-2, 8.73 µM (inactive). In addition, the GI50 was 19.4 µM (inactive) in the test with OVCAR-8; 14.1 µM (inactive) in the test with OVCAR-3; 14.1 µM (inactive) in the test on A498; 14.8 µM (inactive) in the test on TK-10; 16 µM (inactive) in the test with HCC 2998; 17 µM (inactive) in the test on SNB-75. Further, the GI50 with BT-549 is 15.7 µM (inactive); with CAKI-1, 11.4 µM (inactive); in the test with SF-295, 10 µM (inactive); with EKVX, 18.8 µM (inactive); in the test on OVCAR-5, 14.7 µM (inactive); with HCT-15, 6.34 µM. The GI50 with UACC-257 was 16.6 µM (inactive).
Turning to `c1ccc(-c2nnc(CCCCCCCCc3nnc(-c4ccccc4)o3)o2)cc1`, the GI50 in the test with NCI/ADR-RES is > 100 µM (inactive); with SK-MEL-28, > 100 µM (inactive); with KM12, 63.8 µM (inactive); in the test on NCI-H522, 25.9 µM (inactive); in the test with UO-31 it was > 100 µM (inactive); in the test with SK-MEL-2, > 100 µM (inactive). For the same compound, the GI50 in the test on OVCAR-8 is > 100 µM (inactive); with OVCAR-3 it was 65 µM (inactive); in the test on A498 it was 16.1 µM (inactive); in the test with TK-10 it was > 100 µM (inactive); in the test with HCC 2998, < 0.01 µM (active); in the test on SNB-75, > 100 µM (inactive). Moreover, the GI50 in the test with BT-549 is > 100 µM (inactive); with CAKI-1, 46 µM (inactive); in the test on SF-295 it was > 100 µM (inactive); in the test with EKVX it was > 100 µM (inactive); in the test on OVCAR-5, > 100 µM (inactive); in the test on HCT-15, over 100 µM. The GI50 in the test on UACC-257 is 42.2 µM (inactive).
Turning to `CCc1ccccc1NC(=O)C(C#N)C1=C(Cl)C(=O)c2ccccc2C1=O` (configuration not stated), the GI50 was 16.7 µM (inactive) with NCI/ADR-RES; 16.9 µM (inactive) in the test on SK-MEL-28; 13.5 µM (inactive) with KM12; 13.5 µM (inactive) in the test with NCI-H522; 13 µM (inactive) with UO-31; 17.3 µM (inactive) in the test with SK-MEL-2. Further, the GI50 is 17.9 µM (inactive) with OVCAR-8; 5.69 µM (inactive) with OVCAR-3; 21.6 µM (inactive) in the test with SR; 18.7 µM (inactive) in the test on TK-10; 17.3 µM (inactive) with SNB-75; 21.9 µM (inactive) in the test with BT-549. For the same compound, the GI50 with CAKI-1 is 20.3 µM (inactive); in the test on SF-295, 20.9 µM (inactive); in the test on EKVX, 17.1 µM (inactive); in the test with OVCAR-5, 18.6 µM (inactive); in the test on HCT-15 it was 14.7 µM; in the test with UACC-257, 16.4 µM (inactive).
In the case of `O=c1c(SSc2coc3cc(F)ccc3c2=O)coc2cc(F)ccc12`, the GI50 is 17.3 µM (inactive) in the test on NCI/ADR-RES; 5.58 µM (inactive) in the test with SK-MEL-28; 8.95 µM (inactive) in the test with KM12; 20.7 µM (inactive) in the test on NCI-H522; 11.4 µM (inactive) in the test on UO-31; 7.78 µM (inactive) with OVCAR-8. For the same compound, the GI50 in the test with OVCAR-3 is 21.6 µM (inactive); in the test on SR it was 31.3 µM (inactive); in the test on TK-10, 35.2 µM (inactive); in the test with HCC 2998, 16.1 µM (inactive); in the test on SNB-75 it was 11 µM (inactive); in the test on BT-549 it was > 100 µM (inactive). In addition, the GI50 is 20.1 µM (inactive) in the test with CAKI-1; 6.68 µM (inactive) with SF-295; 21.1 µM (inactive) in the test on EKVX; 37.8 µM (inactive) in the test on OVCAR-5; 13.8 µM in the test with HCT-15; 21.8 µM (inactive) with UACC-257.
As for `Cc1c(-c2ccc(O)c(O)c2)oc(=O)c2c(O)cccc12`, the GI50 with NCI/ADR-RES was 10.5 µM (inactive); in the test on KM12, 10.1 µM (inactive); in the test with NCI-H522, 2.95 µM (inactive); in the test with UO-31, 11.1 µM (inactive); in the test on SK-MEL-2, 13.1 µM (inactive); with OVCAR-8, 53.3 µM (inactive). Also, the GI50 in the test with OVCAR-3 is 11.6 µM (inactive); in the test on A498 it was 15 µM (inactive); with TK-10, 12.2 µM (inactive); with HCC 2998, 10.4 µM (inactive); with SNB-75, 13.3 µM (inactive); in the test on BT-549, 6.24 µM (inactive). Besides, the GI50 in the test on CAKI-1 was 7.35 µM (inactive); with SF-295, 17.7 µM (inactive); in the test on EKVX it was 8.87 µM (inactive); in the test with OVCAR-5, 14.8 µM (inactive); with HCT-15, 3.96 µM; in the test with UACC-257, 15.7 µM (inactive).
With `Clc1ccc(CSCCc2ccncc2)cc1Cl`, the GI50 was 19.7 µM (inactive) in the test with NCI/ADR-RES; 22.7 µM (inactive) in the test with SK-MEL-28; 21.2 µM (inactive) in the test with KM12; 15.4 µM (inactive) in the test with NCI-H522; 21 µM (inactive) with UO-31; 15.8 µM (inactive) with SK-MEL-2. Further, the GI50 was 19.7 µM (inactive) in the test on OVCAR-8; 16.1 µM (inactive) with OVCAR-3; 13.2 µM (inactive) in the test with A498; 42.9 µM (inactive) in the test with TK-10; 18.2 µM (inactive) in the test on HCC 2998; 22.9 µM (inactive) in the test on SNB-75. The GI50 with BT-549 is 19.6 µM (inactive); in the test with CAKI-1 it was 38.5 µM (inactive); in the test on SF-295 it was 17.5 µM (inactive); with EKVX, 20.4 µM (inactive); with OVCAR-5 it was 23.3 µM (inactive); in the test with HCT-15, 22.9 µM. Further, the GI50 in the test on UACC-257 is 35.9 µM (inactive).
Consider `CO/C(=N\N=C\c1ccc(Cl)cc1Cl)c1ccncc1`, for which the GI50 in the test with NCI/ADR-RES, in the test on KM12, in the test with NCI-H522, in the test with UO-31, in the test on SK-MEL-2 and with OVCAR-8 was > 10 µM (inactive) throughout. Further, the GI50 in the test with OVCAR-3, with SR, in the test on TK-10, in the test on BT-549, in the test on CAKI-1 and in the test on SF-295 was > 10 µM (inactive) throughout. The GI50 is > 10 µM (inactive) in the test with EKVX, > 10 µM (inactive) in the test on OVCAR-5, over 10 µM in the test with HCT-15 and > 10 µM (inactive) with UACC-257.
As for `COC(=O)[C@@]12CCCC(=O)[C@@H]1[C@H]1CCC[C@H]12`, the GI50 in the test on NCI/ADR-RES, in the test on SK-MEL-28, in the test with KM12, in the test on NCI-H522, in the test with UO-31 and with SK-MEL-2 was > 100 µM (inactive) in each case. For the same compound, the GI50 with OVCAR-8, in the test on OVCAR-3, in the test with SR, in the test with TK-10, in the test on HCC 2998 and in the test with SNB-75 was > 100 µM (inactive) each time. Also, the GI50 is > 100 µM (inactive) in the test with BT-549; > 100 µM (inactive) in the test with CAKI-1; > 100 µM (inactive) with SF-295; > 100 µM (inactive) in the test with EKVX; > 100 µM (inactive) in the test on OVCAR-5; over 100 µM in the test with HCT-15. In the test on UACC-257, the GI50 is > 100 µM (inactive).
